Legend:
Assay type in all cases: physicochemical
[1] = Physical and chemical stability of solid on storage (XRPD, HPLC purity)
Description: To evaluate the physical and chemical stability, Compound (1) Form A was stored in 3 conditions (40° C./75% RH; 25° C./60% RH; and 60° C.) for one and four weeks.

[2] = 24-Hrs solubility in pH buffers; settings: for Final Form: 24 hrs
Description: 24-Hrs solubility of Form A was measured in pH buffers (i.e., pH 2.0, 4.0, 6.0, 7.0, 8.0) at RT. Solids were suspended in pH buffers with target conc. of ˜10 mg/mL.

[3] = Solution stability in pH buffers; settings: 37° C.
Description: Solution stability study was performed in pH 2.0/4.0/6.0/7.0 (24 hrs) and pH 8.0 (24 hrs and 96 hrs) buffers. Solids were dissolved with pH buffers with target conc. of ˜0.5 mg/ml to form clear solutions and stored at 37° C. for 24 hrs or 96 hrs.

[4] = Dynamic vapor sorption (DVS)
Description: DVS was measured via a SMS (Surface Measurement Systems) DVS Intrinsic. The relative humidity at 25° C. were calibrated against deliquescence point of LiCl, Mg(NO3)2 and KCl.
(onset temperature). Considering the low TGA weight loss and single sharp DSC endotherm, Form A was postulated to be an anhydrate. […] The HPLC purity of starting material was measured as 99.78 area % (see chromatogram of FIG. 6) and the impurity summary is listed in Table 2.

[5] = Kinetic solubility in bio-relevant media and H2O; settings: for Final Form: 37° C.
Description: Solids were suspended in FaSSIF, FeSSIF, SGF and H2O with target conc. of ˜10 mg/mL. The suspensions were agitated on a rolling incubator at 25 rpm (in the incubator set at 37° C.) for 1, 4 and 24 hrs. At each time point, 1 mL of the suspension was pipetted out for centrifugation at 15000 rpm (3 min) and filtration through 0.45 μm membrane to obtain supernatant for HPLC solubility and pH tests, the residual solids were analyzed by XRPD.

[6] = all conditions (40° C./75% RH, 25° C./60% RH, 60° C.; one and four weeks)
[7] = pH 7.0 (50 mM Phosphate), 24 hrs
[8] = pH 8.0 (50 mM Phosphate), 24 hrs
[9] = pH 8.0 (50 mM Phosphate), 96 hrs

CC(C)(C(=O)N1CCOc2c(C#N)cncc2C1)C(F)F [Form A, 4-(3,3-difluoro-2,2-dimethyl-propanoyl)-3,5-dihydro-2H-pyrido[3,4-f][1,4]oxazepine-9-carbonitrile]
API (RRT 1.00) ([1]; 1 week, 25° C./60% RH): 99.92 % Area | Description ([1]; 1 week, 25° C./60% RH): White powder | Final Form ([1]; 1 week, 25° C./60% RH): Form A | Imp.1 (RRT 0.68) ([1]; 1 week, 25° C./60% RH): 0.08 % Area | Purity vs. initial (%) ([1]; 1 week, 25° C./60% RH): 100.0% | API (RRT 1.00) ([1]; 1 week, 40° C./75% RH): 99.89 % Area | Description ([1]; 1 week, 40° C./75% RH): White powder | Final Form ([1]; 1 week, 40° C./75% RH): Form A | Imp.1 (RRT 0.68) ([1]; 1 week, 40° C./75% RH): 0.11 % Area | Purity vs. initial (%) ([1]; 1 week, 40° C./75% RH): 100.0% | API (RRT 1.00) ([1]; 1 week, 60° C.): 99.90 % Area | Description ([1]; 1 week, 60° C.): White powder | Final Form ([1]; 1 week, 60° C.): Form A | Imp.1 (RRT 0.68) ([1]; 1 week, 60° C.): 0.10 % Area | Purity vs. initial (%) ([1]; 1 week, 60° C.): 100.0% | API (RRT 1.00) ([1]; 4 weeks, 25° C./60% RH): 99.90 % Area | Description ([1]; 4 weeks, 25° C./60% RH): White powder | Final Form ([1]; 4 weeks, 25° C./60% RH): Form A | Imp.1 (RRT 0.68) ([1]; 4 weeks, 25° C./60% RH): 0.10 % Area | Purity vs. initial (%) ([1]; 4 weeks, 25° C./60% RH): 100.0% | API (RRT 1.00) ([1]; 4 weeks, 40° C./75% RH): 99.90 % Area | Description ([1]; 4 weeks, 40° C./75% RH): White powder | Final Form ([1]; 4 weeks, 40° C./75% RH): Form A | Imp.1 (RRT 0.68) ([1]; 4 weeks, 40° C./75% RH): 0.10 % Area | Purity vs. initial (%) ([1]; 4 weeks, 40° C./75% RH): 100.0% | API (RRT 1.00) ([1]; 4 weeks, 60° C.): 99.90 % Area | Description ([1]; 4 weeks, 60° C.): White powder | Final Form ([1]; 4 weeks, 60° C.): Form A | Imp.1 (RRT 0.68) ([1]; 4 weeks, 60° C.): 0.10 % Area | Purity vs. initial (%) ([1]; 4 weeks, 60° C.): 100.0% | HPLC purity change on storage [1, 6]: no obvious HPLC purity change | form change on storage (XRPD) [1, 6]: no form change | Final Form ([2]; pH 2.0 (50 mM HCl—KCl)): Form A | Final Form ([2]; pH 4.0 (50 mM Citrate)): Form A | Final Form ([2]; pH 6.0 (50 mM Citrate)): Form A | Final Form ([2]; pH 7.0 (50 mM Phosphate)): Form A | Final Form ([2]; pH 8.0 (50 mM Phosphate)): Form A | form change after equilibrium solubility evaluation (XRPD) ([2]; pH buffers): no form change | API (RRT 1.00) ([3]; pH 2.0 (50 mM HCl—KCl), 24 hrs): 84.93 % Area | Imp. 1 (RRT 0.66) ([3]; pH 2.0 (50 mM HCl—KCl), 24 hrs): 0.15 % Area | Imp. 1 (RRT 0.70) ([3]; pH 2.0 (50 mM HCl—KCl), 24 hrs): 0.67 % Area | Imp. 1 (RRT 0.76) ([3]; pH 2.0 (50 mM HCl—KCl), 24 hrs): 14.25 % Area | Imp. 1 (RRT 1.05) ([3]; pH 2.0 (50 mM HCl—KCl), 24 hrs): — (—: <0.05 area %) | Purity vs. initial (%) ([3]; pH 2.0 (50 mM HCl—KCl), 24 hrs): 85.1% | degradation in solution ([3]; pH 2.0 and pH 4.0 buffers, 24 hrs): Degradation was observed | API (RRT 1.00) ([3]; pH 4.0 (50 mM Citrate), 24 hrs): 98.42 % Area | Imp. 1 (RRT 0.66) ([3]; pH 4.0 (50 mM Citrate), 24 hrs): 0.15 % Area | Imp. 1 (RRT 0.70) ([3]; pH 4.0 (50 mM Citrate), 24 hrs): — (—: <0.05 area %) | Imp. 1 (RRT 0.76) ([3]; pH 4.0 (50 mM Citrate), 24 hrs): 0.38 % Area | Imp. 1 (RRT 1.05) ([3]; pH 4.0 (50 mM Citrate), 24 hrs): 0.06 % Area | Purity vs. initial (%) ([3]; pH 4.0 (50 mM Citrate), 24 hrs): 98.5% | API (RRT 1.00) ([3]; pH 6.0 (50 mM Citrate), 24 hrs): 99.75 % Area | Imp. 1 (RRT 0.66) ([3]; pH 6.0 (50 mM Citrate), 24 hrs): 0.13 % Area | Imp. 1 (RRT 0.70) ([3]; pH 6.0 (50 mM Citrate), 24 hrs): — (—: <0.05 area %) | Imp. 1 (RRT 0.76) ([3]; pH 6.0 (50 mM Citrate), 24 hrs): 0.06 % Area | Imp. 1 (RRT 1.05) ([3]; pH 6.0 (50 mM Citrate), 24 hrs): 0.06 % Area | Purity vs. initial (%) ([3]; pH 6.0 (50 mM Citrate), 24 hrs): 99.8% | API (RRT 1.00) [3, 7]: 99.78 % Area | Imp. 1 (RRT 0.66) [3, 7]: 0.15 % Area | Imp. 1 (RRT 0.70) [3, 7]: — (—: <0.05 area %) | Imp. 1 (RRT 0.76) [3, 7]: — (—: <0.05 area %) | Imp. 1 (RRT 1.05) [3, 7]: 0.07 % Area | Purity vs. initial (%) [3, 7]: 99.9% | API (RRT 1.00) [3, 8]: 99.81 % Area | Imp. 1 (RRT 0.66) [3, 8]: 0.13 % Area | Imp. 1 (RRT 0.70) [3, 8]: — (—: <0.05 area %) | Imp. 1 (RRT 0.76) [3, 8]: — (—: <0.05 area %) | Imp. 1 (RRT 1.05) [3, 8]: 0.06 % Area | Purity vs. initial (%) [3, 8]: 100.0% | API (RRT 1.00) [3, 9]: 99.83 % Area | Imp. 1 (RRT 0.66) [3, 9]: 0.13 % Area | Imp. 1 (RRT 0.70) [3, 9]: — (—: <0.05 area %) | Imp. 1 (RRT 0.76) [3, 9]: — (—: <0.05 area %) | Imp. 1 (RRT 1.05) [3, 9]: 0.04 % Area | Purity vs. initial (%) [3, 9]: 100.0% | water uptake (DVS) ([4]; 25° C./80% RH): 0.024% | form change after DVS test (XRPD) ([4]; after DVS test): no form change | Final Form ([5]; FaSSIF (pH 6.5), 1 hr): Form A | Final Form ([5]; FaSSIF (pH 6.5), 4 hr): Form A | Final Form ([5]; FaSSIF (pH 6.5), 24 hr): Form A | Final Form ([5]; FeSSIF (pH 5.0), 1 hr): Form A | Final Form ([5]; FeSSIF (pH 5.0), 4 hr): Form A | Final Form ([5]; FeSSIF (pH 5.0), 24 hr): Form A | Final Form ([5]; H2O (pH 6.5), 1 hr): Form A | Final Form ([5]; H2O (pH 6.5), 4 hr): Form A | Final Form ([5]; H2O (pH 6.5), 24 hr): Form A | Final Form ([5]; SGF (pH 1.8), 1 hr): Form A | Final Form ([5]; SGF (pH 1.8), 4 hr): Form A | Final Form ([5]; SGF (pH 1.8), 24 hr): Form A | form change after kinetic solubility test (XRPD) ([5]; bio-relevant media or H2O): No form change

From US20240317776A1, “SOLID FORMS OF 4-(3,3-DIFLUORO-2,2-DIMETHYL-PROPANOYL)-3,5-DIHYDRO-2H-PYRIDO[3,4-F][1,4]OXAZEPINE-9-CARBONITRILE” (Denali Therapeutics Inc., priority 2022, published 2024)
